Data as given in patent US20150344540A1, “NOVEL GLP-1 RECEPTOR AGONISTS WITH CHOLESTEROL EFFLUX ACTIVITY” (NOVO NORDISK A/S, priority 2012, published 2015).
Read-outs that look alike come from different tables or passages of the source. Where a SMILES comes first, the peptide text is derived from it. Where no end group is shown, it is not given here. [ ]: non-standard residue; d: D form. Aib = CC(C)(N)C(=O)O

B1: [Aib8,Glu23,Val25,Glu34,Lys35,Phe36,Lys37]-GLP-1-(7-37)-peptidyl-Glu-Ala-Phe amide (peptide)
peptide: H[Aib]EGTFTSDVSSYLEGEAVKEFIAWLVEKFKEAF-NH2
modifications: N-terminus assumed
SMILES: CC[C@H](C)[C@H](NC(=O)[C@H](Cc1ccccc1)NC(=O)[C@H](CCC(=O)O)NC(=O)[C@H](CCCCN)NC(=O)[C@@H](NC(=O)[C@H](C)NC(=O)[C@H](CCC(=O)O)NC(=O)CNC(=O)[C@H](CCC(=O)O)NC(=O)[C@H](CC(C)C)NC(=O)[C@H](Cc1ccc(O)cc1)NC(=O)[C@H](CO)NC(=O)[C@H](CO)NC(=O)[C@@H](NC(=O)[C@H](CC(=O)O)NC(=O)[C@H](CO)NC(=O)[C@@H](NC(=O)[C@H](Cc1ccccc1)NC(=O)[C@@H](NC(=O)CNC(=O)[C@H](CCC(=O)O)NC(=O)C(C)(C)NC(=O)[C@@H](N)Cc1c[nH]cn1)[C@@H](C)O)[C@@H](C)O)C(C)C)C(C)C)C(=O)N[C@@H](C)C(=O)N[C@@H](Cc1c[nH]c2ccccc12)C(=O)N[C@@H](CC(C)C)C(=O)N[C@H](C(=O)N[C@@H](CCC(=O)O)C(=O)N[C@@H](CCCCN)C(=O)N[C@@H](Cc1ccccc1)C(=O)N[C@@H](CCCCN)C(=O)N[C@@H](CCC(=O)O)C(=O)N[C@@H](C)C(=O)N[C@@H](Cc1ccccc1)C(N)=O)C(C)C

How the values were obtained:
[1] = molecular target: human GLP-1 receptor (Homo sapiens, UniProt P43220); assay: Functional GLP-1 receptor assay, in vitro potency (CRE luciferase; whole cells); type: cell-based; conditions: BHK cells expressing human GLP-1 receptor
[2] = molecular target: human GLP-1 receptor (human, UniProt P43220); assay: cell-based or functional assay
[3] = GLP1R CRE luc 1% HSA EC50 Mean Value, 1% HSA

Chain of human GLP-1 receptor (Homo sapiens, UniProt P43220) (P43220 24-463): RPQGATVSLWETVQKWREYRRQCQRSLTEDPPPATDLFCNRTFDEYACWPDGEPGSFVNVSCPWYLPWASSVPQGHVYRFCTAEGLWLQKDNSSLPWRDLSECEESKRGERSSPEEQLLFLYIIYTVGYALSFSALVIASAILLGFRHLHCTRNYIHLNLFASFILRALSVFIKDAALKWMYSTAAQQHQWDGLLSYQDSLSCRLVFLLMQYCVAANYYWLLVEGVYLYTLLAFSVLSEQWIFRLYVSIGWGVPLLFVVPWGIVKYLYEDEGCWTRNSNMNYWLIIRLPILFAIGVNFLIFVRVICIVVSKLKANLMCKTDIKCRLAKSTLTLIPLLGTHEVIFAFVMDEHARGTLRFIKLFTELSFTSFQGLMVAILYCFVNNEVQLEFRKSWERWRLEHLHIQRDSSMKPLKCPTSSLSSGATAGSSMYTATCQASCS

Row | Molecule | EC50 [1, 3] [nM] | EC50 ([1]; 0% HSA, read-out: GLP1R CRE luc 0% HSA EC50 Mean Value) [nM] | CRE luciferase EC50, 0% HSA [2] [nM] | CRE luciferase EC50, 1% HSA [2] [nM]
1 | CC[C@H](C)[C@H](NC(=O)[C@H](Cc1ccccc1)NC(=O)[C@H](CCC(=O)O)NC(=O)[C@H](CCCCN)NC(=O)[C@@H](NC(=O)[C@H](C)NC(=O)[C@H](CCC(=O)O)NC(=O)CNC(=O)[C@H](CCC(=O)O)NC(=O)[C@H](CC(C)C)NC(=O)[C@H](Cc1ccc(O)cc1)NC(=O)[C@H](CCC(=O)O)NC(=O)[C@@H](NC(=O)[C@@H](NC(=O)[C@H](CC(=O)O)NC(=O)[C@H](CC(N)=O)NC(=O)[C@@H](NC(=O)[C@H](Cc1ccc(O)cc1)NC(=O)[C@@H](NC(=O)CNC(=O)[C@H](CCC(=O)O)NC(=O)[C@H](C)NC(=O)[C@@H](N)Cc1c[nH]cn1)[C@@H](C)O)[C@@H](C)O)C(C)C)[C@@H](C)O)C(C)C)C(=O)N[C@@H](C)C(=O)N[C@@H](Cc1c[nH]c2ccccc12)C(=O)N[C@@H](CC(C)C)C(=O)N[C@H](C(=O)N[C@@H](CCC(=O)O)C(=O)N[C@@H](CCCCN)C(=O)NC(C)(C)C(=O)N[C@@H](CCCCN)C(=O)N[C@@H](CCC(=O)O)C(=O)N[C@@H](Cc1ccccc1)C(=O)N[C@@H](CC(C)C)C(N)=O)C(C)C [Compound 13, [Tyr12,Asn14,Thr17,Glu18,Glu23,Val25,Glu34,Lys35,Aib36,Lys37]-GLP-1-(7-37)-peptidyl-Glu-Phe-Leu amide] (H-HAEGTYTNDVTEYLEGEAVKEFIAWLVEK[Aib]KEFL-NH2; N-terminus assumed) | 0.104 |  |  | 
2 | CC[C@H](C)[C@H](NC(=O)[C@H](Cc1ccccc1)NC(=O)[C@H](CCC(=O)O)NC(=O)[C@H](CCCCN)NC(=O)[C@@H](NC(=O)[C@H](C)NC(=O)[C@H](CCC(=O)O)NC(=O)CNC(=O)[C@H](CCC(=O)O)NC(=O)[C@H](Cc1ccc(O)cc1)NC(=O)[C@H](Cc1ccc(O)cc1)NC(=O)[C@H](CO)NC(=O)[C@H](CO)NC(=O)[C@@H](NC(=O)[C@H](CC(=O)O)NC(=O)[C@H](Cc1c[nH]cn1)NC(=O)[C@@H](NC(=O)[C@H](Cc1ccccc1)NC(=O)[C@@H](NC(=O)CNC(=O)[C@H](CCC(=O)O)NC(=O)[C@H](C)NC(=O)[C@@H](N)Cc1c[nH]cn1)[C@@H](C)O)[C@@H](C)O)C(C)C)C(C)C)C(=O)N[C@@H](C)C(=O)N[C@@H](Cc1c[nH]c2ccccc12)C(=O)N[C@@H](CC(C)C)C(=O)N[C@H](C(=O)N[C@@H](CCC(=O)O)C(=O)N[C@@H](CCCCN)C(=O)NC(C)(C)C(=O)N[C@@H](CCCCN)C(=O)N[C@@H](CCC(=O)O)C(=O)N[C@@H](Cc1ccccc1)C(=O)N[C@@H](CC(C)C)C(N)=O)C(C)C [Compound 15, [His4,Tyr20,Glu23,Val25,Glu34,Lys35,Aib36,Lys37]-GLP-1-(7-37)-peptidyl-Glu-Phe-Leu amide] (H-HAEGTFTHDVSSYYEGEAVKEFIAWLVEK[Aib]KEFL-NH2; N-terminus assumed) | 0.101 |  |  | 
3 | CC[C@H](C)[C@H](NC(=O)[C@H](Cc1ccccc1)NC(=O)[C@H](CCC(=O)O)NC(=O)[C@H](CCCCN)NC(=O)[C@@H](NC(=O)[C@H](C)NC(=O)[C@H](CCC(=O)O)NC(=O)CNC(=O)[C@H](CCC(=O)O)NC(=O)[C@H](CC(C)C)NC(=O)[C@H](Cc1ccc(O)cc1)NC(=O)[C@H](CC(N)=O)NC(=O)[C@@H](NC(=O)[C@H](CCSC)NC(=O)[C@H](CC(=O)O)NC(=O)[C@H](CC(N)=O)NC(=O)[C@@H](NC(=O)[C@H](Cc1ccccc1)NC(=O)[C@@H](NC(=O)CNC(=O)[C@H](CCC(=O)O)NC(=O)[C@H](C)NC(=O)[C@@H](N)Cc1c[nH]cn1)[C@@H](C)O)[C@@H](C)O)[C@@H](C)O)C(C)C)C(=O)N[C@@H](C)C(=O)N[C@@H](Cc1c[nH]c2ccccc12)C(=O)N[C@@H](CC(C)C)C(=O)N[C@H](C(=O)N[C@@H](CCC(=O)O)C(=O)N[C@@H](CCCCN)C(=O)NC(C)(C)C(=O)N[C@@H](CCCCN)C(=O)N[C@@H](CCC(=O)O)C(=O)N[C@@H](Cc1ccccc1)C(=O)N[C@@H](CC(C)C)C(N)=O)C(C)C [Compound 44, [Asn14,Met16,Thr17,Asn18,Glu23,Val25,Glu34,Lys35,Aib36,Lys37]-GLP-1-(7-37)-peptidyl-Glu-Phe-Leu amide] (H-HAEGTFTNDMTNYLEGEAVKEFIAWLVEK[Aib]KEFL-NH2; N-terminus assumed) | 0.077 |  |  | 
4 | CC[C@H](C)[C@H](NC(=O)[C@H](Cc1ccccc1)NC(=O)[C@H](CCC(=O)O)NC(=O)[C@H](CCCCN)NC(=O)[C@H](C)NC(=O)[C@H](C)NC(=O)[C@H](CCCCN)NC(=O)[C@H](CCC(=O)O)NC(=O)[C@H](CCC(=O)O)NC(=O)[C@H](CC(C)C)NC(=O)[C@H](Cc1ccc(O)cc1)NC(=O)[C@H](CCCCN)NC(=O)[C@H](CO)NC(=O)[C@H](Cc1ccc(O)cc1)NC(=O)[C@H](CC(=O)O)NC(=O)[C@H](CO)NC(=O)[C@@H](NC(=O)[C@H](Cc1ccccc1)NC(=O)[C@@H](NC(=O)CNC(=O)[C@H](CCC(N)=O)NC(=O)[C@H](CO)NC(=O)[C@@H](N)Cc1c[nH]cn1)[C@@H](C)O)[C@@H](C)O)C(=O)N[C@@H](C)C(=O)N[C@@H](Cc1c[nH]c2ccccc12)C(=O)N[C@@H](CC(C)C)C(=O)N[C@@H](CC(C)C)C(=O)N[C@@H](CCC(=O)O)C(=O)N[C@@H](CCCCN)C(=O)NC(C)(C)C(=O)N[C@@H](CCCCN)C(=O)N[C@@H](CCC(=O)O)C(=O)N[C@@H](Cc1ccccc1)C(=O)N[C@@H](CC(C)C)C(N)=O [Compound 57] (H-HSQGTFTSDYSKYLEEKAAKEFIAWLLEK[Aib]KEFL-NH2) | 0.044 | 0.086 |  | 
5 | B1 |  |  | 0.372 | 0.115
